The record followed here is US20090105305A1, “Therapeutic Agents - 550” (AstraZeneca AB, priority 2006, published 2009).

SMILES strings stand for the structures.

For one assay, the target named is T1, human Fatty Acid Synthase (Homo sapiens, UniProt P49327).
T1 construct: made in house
T1 sequence (P49327 whole entry): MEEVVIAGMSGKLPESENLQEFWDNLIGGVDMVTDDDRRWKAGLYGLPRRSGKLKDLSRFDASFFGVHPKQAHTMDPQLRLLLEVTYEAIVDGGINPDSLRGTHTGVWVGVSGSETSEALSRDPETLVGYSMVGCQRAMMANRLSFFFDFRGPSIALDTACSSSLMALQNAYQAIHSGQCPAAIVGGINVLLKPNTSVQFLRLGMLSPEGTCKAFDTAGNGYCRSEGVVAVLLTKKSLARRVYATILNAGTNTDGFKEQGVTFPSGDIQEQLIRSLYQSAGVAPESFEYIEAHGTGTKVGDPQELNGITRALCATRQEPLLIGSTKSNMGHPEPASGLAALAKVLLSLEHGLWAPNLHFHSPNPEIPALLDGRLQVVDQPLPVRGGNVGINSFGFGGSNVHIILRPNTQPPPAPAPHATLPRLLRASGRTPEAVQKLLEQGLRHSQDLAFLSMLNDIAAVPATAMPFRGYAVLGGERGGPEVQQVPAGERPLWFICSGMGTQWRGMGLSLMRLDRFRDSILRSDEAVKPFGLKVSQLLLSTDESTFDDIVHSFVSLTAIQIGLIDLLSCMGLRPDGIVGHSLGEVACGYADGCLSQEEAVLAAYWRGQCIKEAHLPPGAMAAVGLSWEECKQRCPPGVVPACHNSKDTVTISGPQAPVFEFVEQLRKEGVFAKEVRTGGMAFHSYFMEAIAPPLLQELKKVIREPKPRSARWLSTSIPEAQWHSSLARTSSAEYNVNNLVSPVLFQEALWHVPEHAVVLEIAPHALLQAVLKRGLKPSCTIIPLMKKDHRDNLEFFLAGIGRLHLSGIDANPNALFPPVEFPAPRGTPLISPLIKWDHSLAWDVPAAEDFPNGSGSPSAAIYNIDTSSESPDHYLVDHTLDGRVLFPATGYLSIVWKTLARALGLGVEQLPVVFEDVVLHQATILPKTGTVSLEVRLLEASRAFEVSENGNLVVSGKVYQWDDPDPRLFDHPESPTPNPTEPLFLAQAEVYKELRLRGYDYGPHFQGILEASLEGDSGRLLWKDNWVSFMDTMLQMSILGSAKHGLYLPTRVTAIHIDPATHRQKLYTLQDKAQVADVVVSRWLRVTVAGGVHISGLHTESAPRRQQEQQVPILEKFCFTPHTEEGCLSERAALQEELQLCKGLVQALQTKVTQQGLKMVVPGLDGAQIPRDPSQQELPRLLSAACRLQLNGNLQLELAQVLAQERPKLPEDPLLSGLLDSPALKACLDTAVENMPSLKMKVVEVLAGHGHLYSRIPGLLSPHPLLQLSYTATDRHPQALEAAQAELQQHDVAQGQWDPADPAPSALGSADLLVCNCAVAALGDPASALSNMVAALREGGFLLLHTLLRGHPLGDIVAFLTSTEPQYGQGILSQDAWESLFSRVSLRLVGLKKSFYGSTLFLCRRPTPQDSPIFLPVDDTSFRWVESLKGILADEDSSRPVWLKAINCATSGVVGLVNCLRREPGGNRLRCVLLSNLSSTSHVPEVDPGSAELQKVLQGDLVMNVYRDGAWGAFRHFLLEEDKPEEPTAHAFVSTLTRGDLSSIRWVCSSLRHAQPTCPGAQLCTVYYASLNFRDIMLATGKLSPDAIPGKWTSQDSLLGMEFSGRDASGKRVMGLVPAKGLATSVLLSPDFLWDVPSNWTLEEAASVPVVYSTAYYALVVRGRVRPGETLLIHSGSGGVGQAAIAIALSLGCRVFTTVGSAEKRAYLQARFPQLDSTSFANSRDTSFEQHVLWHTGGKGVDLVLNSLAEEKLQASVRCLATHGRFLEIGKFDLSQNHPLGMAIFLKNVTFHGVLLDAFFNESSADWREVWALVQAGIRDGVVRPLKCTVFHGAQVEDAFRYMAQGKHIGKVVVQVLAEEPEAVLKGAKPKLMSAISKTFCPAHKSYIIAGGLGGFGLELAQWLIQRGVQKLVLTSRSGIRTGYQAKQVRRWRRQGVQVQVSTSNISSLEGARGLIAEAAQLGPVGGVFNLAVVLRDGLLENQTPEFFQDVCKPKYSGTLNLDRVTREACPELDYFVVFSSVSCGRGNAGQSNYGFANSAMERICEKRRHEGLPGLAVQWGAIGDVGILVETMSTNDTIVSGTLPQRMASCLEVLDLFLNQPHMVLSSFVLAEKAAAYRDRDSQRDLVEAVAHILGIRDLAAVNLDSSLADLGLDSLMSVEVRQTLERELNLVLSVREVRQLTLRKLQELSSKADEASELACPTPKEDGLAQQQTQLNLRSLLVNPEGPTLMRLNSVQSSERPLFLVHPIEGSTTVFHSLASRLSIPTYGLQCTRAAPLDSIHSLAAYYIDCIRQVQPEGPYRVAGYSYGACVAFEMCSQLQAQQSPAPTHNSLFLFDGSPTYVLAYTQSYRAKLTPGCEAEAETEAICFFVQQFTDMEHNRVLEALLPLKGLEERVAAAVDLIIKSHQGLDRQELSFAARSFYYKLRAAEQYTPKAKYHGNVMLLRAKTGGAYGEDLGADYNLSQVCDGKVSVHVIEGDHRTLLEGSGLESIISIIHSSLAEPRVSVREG
Description: Human FAS enzyme assay (decrease in NADPH fluorescence). In kind it is biochemical. Particulars: % inhibition at a concentration of 100 micromolar. The source says:
The compounds of the present invention are Fatty Acid Synthase inhibitors. […] Human and Rat FAS Enzyme Assay.
Fatty acid synthase is an enzyme complex that harbours seven enzymatic activities catalysing the reductive synthesis of long chain fatty acids from acetyl CoA and malonyl CoA to palmitate. When acetyl CoA and malonyl CoA are forming palmitate NADPH is consumed forming NADP. Since NADPH is fluorescent but not NADP the reaction can be measured by analysing the decrease in fluorescence.
Compounds were added to a black 384 well plate (Matrix) in a volume of 5 μl consisting of 20% DMSO and 80% Tris buffer pH 7.5, at a top concentration of 1 mM. NADPH, 30 μl of 166.6 μM, formulated in assay buffer (0.1M Tris ph7.5, 0.1 mM EDTA, 1 mM glutathione, 0.05% BSA), was then added to all of the wells of the plate. Fatty acid synthase Human or rat enzyme (0.4 μg, produced in house), dissolved in 20 mM Tris/HCl pH 7.5, 5 mM BOG, 1 mM TCEP, 10% glycerol, 1 mM EDTA, 150 mM NaCl, was then added to the plate in a volume of […]. Enzyme was added to all but the last two columns of the plate, to which, 10 μl of assay buffer was added (0.1M Tris ph7.5, 0.1 mM EDTA, 1 mM glutathione, 0.05% BSA) to provide a no enzyme assay control. Following a 15-minute incubation period, at room temperature, the plates were read on an Envision plate reader using 340 nm excitation and 460 nm emission filters. This served as a time zero background read. Substrates (an equal mix of both malonyl and acetyl CoA) were then added to the plates in a total volume of 5 μl. The concentrations of malonyl and acetyl CoA in the mixture were 500 μM and 150 μM respectively. Both were prepared as 10 mM stock solutions in distilled water and were subsequently diluted to working concentrations in assay buffer. Plates were then incubated for a further 60 minutes, at room temperature, before being read again on the Envision reader using the same parameters as previously used. The data was analysed by subtracting the background time zero data from that generated following the final 60 minute incubate and the percent inhibition compared to the maximum and minimum assay controls was determined. Sigmoid curves were fitted using Origin 7.5 Client software and IC50 values were determined.
Usually inhibition stands for the drop in the measured response relative to a control, in per cent. Lower therefore signals little suppression. Regarding `Cc1ccc(C(=O)N2CCC(c3ccc([S+](C)[O-])cc3)CC2)cc1NS(C)(=O)=O` (stereo not shown) [Example 182, N-[2-methyl-5-[4-(4-methylsulfinylphenyl)piperidine-1-carbonyl]phenyl]methanesulfonamide], the inhibition at 100 µM turned out to be 80%.

Take `Cc1ccc(C(=O)N2CCC(c3ccc(C#N)cc3)CC2)cc1NS(=O)(=O)CC#N` [Example 212, 1-cyano-N-[5-[4-(4-cyanophenyl)piperidine-1-carbonyl]-2-methylphenyl]methanesulfonamide]: the inhibition at 100 µM is 69%.

The molecule `Cc1ccc(C(=O)N2CCC(c3ccc(C#N)cc3)CC2)cc1NS(=O)(=O)CCCNCc1cccnc1` [Example 141, N-[5-[4-(4-cyanophenyl)piperidine-1-carbonyl]-2-methyl-phenyl]-3-(pyridin-3-ylmethylamino)propane-1-sulfonamide] gave an inhibition at 100 µM of 93%.

In turn, `Cc1ccc(NS(=O)(=O)C2CCCCC2)cc1C(=O)N1CCC(c2ccc(C#N)cc2)CC1` [Example 42, N-[3-[4-(4-cyanophenyl)piperidine-1-carbonyl]-4-methyl-phenyl]cyclohexanesulfonamide] returned an inhibition at 100 µM of 90%.

Turning to `Cc1ccc(C(=O)N2CCC(c3ccc(C#N)cc3)CC2)cc1NS(=O)(=O)C1CCN(S(C)(=O)=O)CC1` [Example 121, N-[5-[4-(4-cyanophenyl)piperidine-1-carbonyl]-2-methyl-phenyl]-1-methylsulfonyl-piperidine-4-sulfonamide], the inhibition at 100 µM stood at 89%.

As to `Cc1ccc(C(=O)N2CCC(c3ccc(SC(F)(F)F)cc3)CC2)cc1NS(C)(=O)=O` [Example 232, N-[2-methyl-5-[4-[4-(trifluoromethylsulfanyl)phenyl]piperidine-1-carbonyl]phenyl]methanesulfonamide], the inhibition at 100 µM is 88.9%.

`Cc1ccc(C(=O)N2CCC(c3ccc(C#N)cc3)CC2)cc1NS(=O)(=O)c1cn(C)nc1C` [Example 139, N-[5-[4-(4-cyanophenyl)piperidine-1-carbonyl]-2-methyl-phenyl]-1,3-dimethyl-pyrazole-4-sulfonamide] yielded an inhibition at 100 µM of 83%.

With `Cc1ccc(C(=O)N2CCC(c3ccc(C#N)cc3)CC2)cc1NS(=O)(=O)CCNC(=O)c1ccccc1` [Example 86, N-[2-[[5-[4-(4-cyanophenyl)piperidine-1-carbonyl]-2-methyl-phenyl]sulfamoyl]ethyl]benzamide], the inhibition at 100 µM worked out at 100%.

Molecule `Cc1ccc(C(=O)N2CCC(c3ccc(C#N)cc3)CC2)cc1NS(=O)(=O)c1ccccc1C(=O)N(C)C` [Example 206, 2-[[5-[4-(4-cyanophenyl)piperidine-1-carbonyl]-2-methylphenyl]sulfamoyl]-N,N-dimethylbenzamide] returned an inhibition at 100 µM of 76%.

Regarding `Cc1ccc(C(=O)N2CCC(c3ccc(C#N)cc3)CC2)cc1NS(=O)(=O)c1ccccc1C(=O)N1CCOCC1` [Example 111, N-[5-[4-(4-cyanophenyl)piperidine-1-carbonyl]-2-methyl-phenyl]-2-(morpholine-4-carbonyl)benzenesulfonamide], the inhibition at 100 µM came to 80%.

As for `Cc1ccc(C(=O)N2CCC(c3ccc(C#N)cc3)CC2)cc1NS(=O)(=O)CC(C)C` [Example 64, N-[5-[4-(4-cyanophenyl)piperidine-1-carbonyl]-2-methyl-phenyl]-2-methyl-propane-1-sulfonamide], testing at 100 µM gave an inhibition of 83%.

As for `Cc1ccc(C(=O)N2CCC(c3ccc(C#N)cc3)CC2)cc1NS(=O)(=O)Cc1ccc(S(C)(=O)=O)cc1` [Example 62, N-[5-[4-(4-cyanophenyl)piperidine-1-carbonyl]-2-methyl-phenyl]-1-(4-methylsulfonylphenyl)methanesulfonamide], the inhibition at 100 µM turned out to be 82%.

Turning to `CC(=O)N1CCC(S(=O)(=O)Nc2cc(C(=O)N3CCC(c4ccc(C#N)cc4)CC3)ccc2C)C1` (stereo not shown) [Example 153, 1-acetyl-N-[5-[4-(4-cyanophenyl)piperidine-1-carbonyl]-2-methyl-phenyl]pyrrolidine-3-sulfonamide], the inhibition at 100 µM was 97%.

`Cc1ccc(NS(=O)(=O)c2ccc3c(c2)CC(=O)N3)cc1C(=O)N1CCC(c2ccc(C#N)cc2)CC1` [Example 53, N-[3-[4-(4-cyanophenyl)piperidine-1-carbonyl]-4-methyl-phenyl]-2-oxo-1,3-dihydroindole-5-sulfonamide]: the inhibition at 100 µM came to 84%.

Turning to `Cc1ccc(C(=O)N2CCC(c3ccc(C#N)cc3)CC2)cc1NS(=O)(=O)c1ccc(C#N)cc1` [Example 23, 4-cyano-N-[5-[4-(4-cyanophenyl)piperidine-1-carbonyl]-2-methyl-phenyl]benzenesulfonamide], the inhibition at 100 µM came to 89%.

The molecule `CCS(=O)(=O)Nc1ccc(C)c(C(=O)N2CCC(c3ccc(C#N)cc3)CC2)c1` [Example 36, N-[3-[4-(4-cyanophenyl)piperidine-1-carbonyl]-4-methyl-phenyl]ethanesulfonamide] yielded an inhibition at 100 µM of 88%.

Take `Cc1ccc(C(=O)N2CCC(c3ccc(C#N)cc3)CC2)cc1NS(=O)(=O)c1ccccc1` [Example 10, N-[5-[4-(4-cyanophenyl)piperidine-1-carbonyl]-2-methyl-phenyl]benzenesulfonamide]: the inhibition at 100 µM was found to be 78%.

On to `CCOC(=O)NCc1ccc(C2CCN(C(=O)c3ccc(C)c(NS(C)(=O)=O)c3)CC2)cc1` [Example 228, Ethyl N-[[4-[1-(3-methanesulfonamido-4-methylbenzoyl)piperidin-4-yl]phenyl]methyl]carbamate], for which 100 µM produced 85.5% inhibition.

For the molecule `Cc1ccc(NS(=O)(=O)c2cccc(C#N)c2)cc1C(=O)N1CCC(c2ccc(C#N)cc2)CC1` [Example 47, 3-cyano-N-[3-[4-(4-cyanophenyl)piperidine-1-carbonyl]-4-methyl-phenyl]benzenesulfonamide], the inhibition at 100 µM is 85%.

`CCC(C)S(=O)(=O)Nc1ccc(C)c(C(=O)N2CCC(c3ccc(C#N)cc3)CC2)c1` (racemic) [Example 44, (RS) N-[3-[4-(4-cyanophenyl)piperidine-1-carbonyl]-4-methyl-phenyl]butane-2-sulfonamide] displayed an inhibition at 100 µM of 89%.

As to `Cc1ccc(C(=O)N2CCC(c3ccc(CO)cc3)CC2)cc1NS(C)(=O)=O` [Example 165, N-[5-[4-[4-(hydroxymethyl)phenyl]piperidine-1-carbonyl]-2-methylphenyl]methanesulfonamide], the inhibition at 100 µM was found to be 76%.

`Cc1ccc(C(=O)N2CCC(c3ccc(C#N)cc3)CC2)cc1NS(=O)(=O)c1cccc(C(=O)O)c1` [Example 79, 3-[[5-[4-(4-cyanophenyl)piperidine-1-carbonyl]-2-methyl-phenyl]sulfamoyl]benzoic acid]: testing at 100 µM gave an inhibition of 95%.

For the molecule `Cc1ccc(NS(=O)(=O)c2cnoc2C)cc1C(=O)N1CCC(c2ccc(C#N)cc2)CC1` [Example 39, N-[3-[4-(4-cyanophenyl)piperidine-1-carbonyl]-4-methyl-phenyl]-5-methyl-1,2-oxazole-4-sulfonamide], testing at 100 µM gave an inhibition of 80%.

As to `Cc1cc(C)c(C(=O)N2CCC(c3ccc(C#N)cc3)CC2)cc1NS(C)(=O)=O` [Example 28, N-[5-[4-(4-cyanophenyl)piperidine-1-carbonyl]-2,4-dimethyl-phenyl]methanesulfonamide], testing at 100 µM gave an inhibition of 93%.

As for `Cc1ccc(C(=O)N2CCC(c3ccc(C#N)cc3)CC2)cc1NS(=O)(=O)CC(O)CN(C)C` (stereo not shown) [Example 150, N-[5-[4-(4-cyanophenyl)piperidine-1-carbonyl]-2-methyl-phenyl]-3-dimethylamino-2-hydroxy-propane-1-sulfonamide], the inhibition at 100 µM stood at 88%.

The molecule `CCC(C)S(=O)(=O)Nc1cc(C(=O)N2CCC(c3ccc(C#N)cc3)CC2)ccc1C` (racemic) [Example 18, (RS)—N-[5-[4-(4-cyanophenyl)piperidine-1-carbonyl]-2-methyl-phenyl]butane-2-sulfonamide] registered an inhibition at 100 µM of 92%.

The same assay, now with this note: compounds excluded from the claims by proviso.
Turning to `COc1cccc(C2CCN(C(=O)c3ccc(C)c(NS(C)(=O)=O)c3)CC2)c1` [N-[5-[4-(3-methoxyphenyl)piperidine-1-carbonyl]-2-methylphenyl]methanesulfonamide], the “IC50s in the range of about 0.001 μM to about 30 μM” value is recorded as “do not have IC50s in the range of about 0.001 μM to about 30 μM”.

In the case of `Cc1ccc(C(=O)N2CCC(O)(c3cccc(C(F)(F)F)c3)CC2)cc1NS(C)(=O)=O` [N-[5-[4-hydroxy-4-[3-(trifluoromethyl)phenyl]piperidine-1-carbonyl]-2-methylphenyl]methanesulfonamide], the “IC50s in the range of about 0.001 μM to about 30 μM” value is reported as “do not have IC50s in the range of about 0.001 μM to about 30 μM”.
